Key:
Assay in all cases: 33PanQinase panel
Format in all cases: biochemical
ABL1 = target: T1, ABL1 (Homo sapiens, UniProt P00519); conditions: ABL1, 1 µM; read-out: Residual Activity (%)
T1 construct: purchased ProQinase
In short: (§1)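 Activity-based radiometric profiling: one concentration (1 µM), 1% DMSO in reaction mix, output as % remaining activity against DMSO-treated control.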

CDK4/CycD3 = target: T2, CDK4/CycD3 (Homo sapiens, UniProt P11802); conditions: CDK4/CycD3, 1 µM; read-out: Residual Activity (%)
T2 construct: purchased ProQinase
In short: as §1

WEE1 = target: T3, WEE1 (Homo sapiens, UniProt P30291); conditions: WEE1, 1 µM; read-out: Residual Activity (%)
T3 construct: purchased ProQinase
In short: as §1

MKK6 S207D/T211D** = target: T4, MKK6 S207D/T211D** (Homo sapiens, UniProt P52564, S207D/T211D); conditions: read-out: Residual Activity (%)
T4 construct: purchased ProQinase
T4 sequence (P52564 whole entry S207D/T211D): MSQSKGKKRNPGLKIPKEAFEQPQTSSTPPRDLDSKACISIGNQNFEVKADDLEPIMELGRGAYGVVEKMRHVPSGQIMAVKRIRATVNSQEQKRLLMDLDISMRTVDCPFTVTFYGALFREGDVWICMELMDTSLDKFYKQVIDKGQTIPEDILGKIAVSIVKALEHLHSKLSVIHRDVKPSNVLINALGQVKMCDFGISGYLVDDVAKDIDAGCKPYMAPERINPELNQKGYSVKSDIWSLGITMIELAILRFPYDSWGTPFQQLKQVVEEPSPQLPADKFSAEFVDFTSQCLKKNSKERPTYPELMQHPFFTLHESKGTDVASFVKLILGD
In short: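 Kinases were screened with the inhibitor at a single concentration of 1 µM. Activity was measured radiometrically with 33P, and each reaction mix contained 1% DMSO. Data are expressed as percentage residual activity compared with DMSO control.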

ACV-RL1 = target: T5, ACV-RL1 (Homo sapiens, UniProt P37023); conditions: ACV-RL1, 1 µM; read-out: Residual Activity (%)
T5 construct: purchased ProQinase
In short: as §1

CDK1/CycB1 = target: T6, CDK1/CycB1 (Homo sapiens, UniProt P06493); conditions: CDK1/CycB1, 1 µM; read-out: Residual Activity (%)
T6 construct: purchased ProQinase
In short: as §1

MET = target: T7, MET (Homo sapiens, UniProt P08581); conditions: read-out: Residual Activity (%)
T7 construct: purchased ProQinase
T7 sequence (P08581 25-1390): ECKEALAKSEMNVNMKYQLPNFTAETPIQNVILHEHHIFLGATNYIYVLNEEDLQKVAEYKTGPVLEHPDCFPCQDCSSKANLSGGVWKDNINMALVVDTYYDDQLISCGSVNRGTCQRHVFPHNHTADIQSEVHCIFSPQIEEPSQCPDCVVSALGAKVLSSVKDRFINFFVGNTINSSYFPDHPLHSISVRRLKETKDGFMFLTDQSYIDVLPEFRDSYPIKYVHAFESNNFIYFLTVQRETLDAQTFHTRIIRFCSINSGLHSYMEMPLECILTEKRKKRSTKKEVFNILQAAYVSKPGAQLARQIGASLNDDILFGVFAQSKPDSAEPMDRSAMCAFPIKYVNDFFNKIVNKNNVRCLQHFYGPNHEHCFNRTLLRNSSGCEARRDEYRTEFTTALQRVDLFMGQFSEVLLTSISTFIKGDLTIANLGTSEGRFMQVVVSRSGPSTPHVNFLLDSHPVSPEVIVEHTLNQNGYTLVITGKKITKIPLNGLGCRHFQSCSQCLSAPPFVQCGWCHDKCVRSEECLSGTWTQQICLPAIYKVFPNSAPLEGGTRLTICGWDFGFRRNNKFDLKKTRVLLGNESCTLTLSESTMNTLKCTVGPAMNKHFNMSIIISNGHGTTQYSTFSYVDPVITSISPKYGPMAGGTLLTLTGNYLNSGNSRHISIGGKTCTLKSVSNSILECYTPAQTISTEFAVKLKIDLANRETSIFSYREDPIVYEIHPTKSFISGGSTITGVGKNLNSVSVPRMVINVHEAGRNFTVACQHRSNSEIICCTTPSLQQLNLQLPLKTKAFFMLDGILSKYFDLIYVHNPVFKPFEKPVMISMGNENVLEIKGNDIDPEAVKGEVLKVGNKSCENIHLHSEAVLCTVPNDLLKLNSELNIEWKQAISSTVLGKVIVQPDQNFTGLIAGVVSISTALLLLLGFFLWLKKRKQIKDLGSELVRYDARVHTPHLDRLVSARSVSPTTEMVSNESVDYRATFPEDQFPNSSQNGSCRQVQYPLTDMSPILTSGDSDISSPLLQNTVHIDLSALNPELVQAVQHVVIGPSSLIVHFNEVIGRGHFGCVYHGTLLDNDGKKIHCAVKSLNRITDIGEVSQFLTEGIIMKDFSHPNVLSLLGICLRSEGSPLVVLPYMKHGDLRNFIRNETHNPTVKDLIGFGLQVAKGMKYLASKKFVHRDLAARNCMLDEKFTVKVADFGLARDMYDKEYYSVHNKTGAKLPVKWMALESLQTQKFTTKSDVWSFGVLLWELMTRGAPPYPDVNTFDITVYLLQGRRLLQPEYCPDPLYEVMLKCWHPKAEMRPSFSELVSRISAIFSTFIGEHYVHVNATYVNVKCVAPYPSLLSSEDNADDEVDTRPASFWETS
In short: as §1

GSK3-alpha = target: T8, GSK3-alpha (Homo sapiens, UniProt P49840); conditions: read-out: Residual Activity (%)
T8 construct: purchased ProQinase
T8 sequence (P49840 whole entry): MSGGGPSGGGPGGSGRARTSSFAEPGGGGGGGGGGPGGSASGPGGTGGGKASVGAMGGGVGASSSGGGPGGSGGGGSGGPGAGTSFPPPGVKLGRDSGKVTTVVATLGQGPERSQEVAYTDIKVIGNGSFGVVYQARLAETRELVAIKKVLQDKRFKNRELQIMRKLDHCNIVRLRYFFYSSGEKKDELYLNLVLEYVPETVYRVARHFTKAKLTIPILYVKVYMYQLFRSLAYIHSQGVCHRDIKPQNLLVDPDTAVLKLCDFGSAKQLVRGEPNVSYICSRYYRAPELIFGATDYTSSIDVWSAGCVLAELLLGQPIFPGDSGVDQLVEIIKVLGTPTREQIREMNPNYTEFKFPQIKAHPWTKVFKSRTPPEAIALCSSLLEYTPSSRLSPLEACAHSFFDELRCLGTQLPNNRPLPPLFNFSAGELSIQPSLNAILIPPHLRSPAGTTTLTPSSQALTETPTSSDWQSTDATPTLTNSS
In short: as §1

ERK2 = target: T9, ERK2 (Homo sapiens, UniProt P28482); conditions: ERK2, 1 µM; read-out: Residual Activity (%)
T9 construct: purchased ProQinase
In short: as §1

PKC-eta = target: T10, PKC-eta (Homo sapiens, UniProt P24723); conditions: read-out: Residual Activity (%)
T10 construct: purchased ProQinase
T10 sequence (P24723 whole entry): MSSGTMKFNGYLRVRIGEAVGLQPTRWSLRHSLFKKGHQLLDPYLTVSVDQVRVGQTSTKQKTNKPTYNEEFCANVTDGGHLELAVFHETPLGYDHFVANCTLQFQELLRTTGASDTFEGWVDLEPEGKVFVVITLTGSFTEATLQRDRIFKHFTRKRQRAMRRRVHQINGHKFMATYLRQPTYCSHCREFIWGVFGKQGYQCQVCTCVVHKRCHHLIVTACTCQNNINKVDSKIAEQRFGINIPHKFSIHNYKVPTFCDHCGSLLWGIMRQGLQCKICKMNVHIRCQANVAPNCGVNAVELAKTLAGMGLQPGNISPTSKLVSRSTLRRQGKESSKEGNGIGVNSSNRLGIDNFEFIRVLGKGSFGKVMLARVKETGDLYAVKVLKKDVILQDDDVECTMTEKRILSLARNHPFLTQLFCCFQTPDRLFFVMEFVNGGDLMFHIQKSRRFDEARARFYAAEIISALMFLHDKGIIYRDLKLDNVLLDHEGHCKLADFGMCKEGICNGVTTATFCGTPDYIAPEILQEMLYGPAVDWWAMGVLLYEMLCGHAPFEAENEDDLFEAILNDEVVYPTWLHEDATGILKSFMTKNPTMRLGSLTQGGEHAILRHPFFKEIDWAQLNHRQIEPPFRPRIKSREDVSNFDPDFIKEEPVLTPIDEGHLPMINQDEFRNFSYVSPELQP
In short: as §1

PKC-theta = target: T11, PKC-theta (Homo sapiens, UniProt Q04759); conditions: read-out: Residual Activity (%)
T11 construct: purchased ProQinase
Description: (§2) Figure 5 Dendrogram representation of the selectivity profile of 29d at a concentration of 1 μM in a panel of 320 wild-type kinases (ProQinase, Freiburg, Germany). The residual kinase activity was determined compared to DMSO control. Images were generated using TREEspot Software Tool, DISCOVERX CORPORATION 2010.
(§3) Figure S1. X-ray crystal structure of intermediate compound 25d (ORTEP drawing with ellipsoids at 30% probability). CCDC 1589043 contains the supplementary crystallographic data for this paper. The data can be obtained free of charge from The Cambridge Crystallographic Data Centre via www.ccdc.cam.ac.uk/structures.
(§4) Table S1 Data collection, structure refinement and Ramachrandran plot results of protein crystallization of CK1δ in complex with compound 30a and 30b, respectively.
(§5) Root-mean-square deviations
(§6) Additionally allowed 2.6 2.2
(§7) Table S2. Selectivity profile of compound 29d. The inhibitor has been screened at a concentration of 1 µM over a panel of 320 wild-type protein kinases by ProQinase GmbH (Freiburg, Germany) using an activity-based radiometric 33PanQinase® assay. Results are presented as percentage of residual kinase activity relative to […]
(§8) control. The final DMSO concentration was 1 % in each reaction-mix. Classification of protein kinase families refers to Manning et al. (Manning, G.; Whyte, D. B.; Martinez, R.; Hunter, T.; Sudarsanam, S. The Protein Kinase Complement of the Human Genome. Science 2002, 298, 1912–1934): AGC = containing PKA, PKG, PKC families; […] = containing Cdk, MAPK, GSK3, CLK families; STE = homologs of yeast sterile 7, sterile 11, sterile 20 kinases; TK = tyrosine kinase; TKL = tyrosine kinase-like.
(§9) Kinase name Kinase family Residual Activity (%)

TNK1 = target: T12, TNK1 (Homo sapiens, UniProt Q13470); conditions: TNK1, 1 µM; read-out: Residual Activity (%)
T12 construct: purchased ProQinase
Description: as §2, §3, §4, §5, §6, §7, §8, §9

MST4 = target: T13, MST4 (Homo sapiens, UniProt Q9P289); conditions: MST4, 1 µM; read-out: Residual Activity (%)
T13 construct: purchased ProQinase
T13 sequence (Q9P289 whole entry): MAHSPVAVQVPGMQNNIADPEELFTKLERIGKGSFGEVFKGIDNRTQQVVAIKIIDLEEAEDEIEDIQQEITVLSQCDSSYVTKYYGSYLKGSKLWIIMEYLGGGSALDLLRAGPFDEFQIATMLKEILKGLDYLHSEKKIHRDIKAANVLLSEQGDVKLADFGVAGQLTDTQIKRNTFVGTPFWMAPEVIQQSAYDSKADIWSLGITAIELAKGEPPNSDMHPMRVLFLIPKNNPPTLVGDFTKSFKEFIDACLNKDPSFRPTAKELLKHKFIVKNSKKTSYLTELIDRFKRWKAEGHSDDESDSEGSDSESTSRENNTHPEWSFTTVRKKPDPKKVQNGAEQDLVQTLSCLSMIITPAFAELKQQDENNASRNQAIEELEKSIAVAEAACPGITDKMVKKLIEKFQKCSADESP
Description: as §2, §3, §4, §5, §6, §7, §8, §9

MKNK1 = target: T14, MKNK1 (Homo sapiens, UniProt Q9BUB5); conditions: MKNK1, 1 µM; read-out: Residual Activity (%)
T14 construct: purchased ProQinase
Description: as §2, §3, §4, §5, §6, §7, §8, §9

PDGFR-alpha = target: T15, PDGFR-alpha (Homo sapiens, UniProt P16234); conditions: read-out: Residual Activity (%)
T15 construct: purchased ProQinase
Description: as §2, §3, §4, §5, §6, §7, §8, §9

ROCK1 = target: T16, ROCK1 (Homo sapiens, UniProt Q13464); conditions: ROCK1, 1 µM; read-out: Residual Activity (%)
T16 construct: purchased ProQinase
Description: as §2, §3, §4, §5, §6, §7, §8, §9

MARK3 = target: T17, MARK3 (Homo sapiens, UniProt P27448); conditions: MARK3, 1 µM; read-out: Residual Activity (%)
T17 construct: purchased ProQinase
T17 sequence (P27448 whole entry): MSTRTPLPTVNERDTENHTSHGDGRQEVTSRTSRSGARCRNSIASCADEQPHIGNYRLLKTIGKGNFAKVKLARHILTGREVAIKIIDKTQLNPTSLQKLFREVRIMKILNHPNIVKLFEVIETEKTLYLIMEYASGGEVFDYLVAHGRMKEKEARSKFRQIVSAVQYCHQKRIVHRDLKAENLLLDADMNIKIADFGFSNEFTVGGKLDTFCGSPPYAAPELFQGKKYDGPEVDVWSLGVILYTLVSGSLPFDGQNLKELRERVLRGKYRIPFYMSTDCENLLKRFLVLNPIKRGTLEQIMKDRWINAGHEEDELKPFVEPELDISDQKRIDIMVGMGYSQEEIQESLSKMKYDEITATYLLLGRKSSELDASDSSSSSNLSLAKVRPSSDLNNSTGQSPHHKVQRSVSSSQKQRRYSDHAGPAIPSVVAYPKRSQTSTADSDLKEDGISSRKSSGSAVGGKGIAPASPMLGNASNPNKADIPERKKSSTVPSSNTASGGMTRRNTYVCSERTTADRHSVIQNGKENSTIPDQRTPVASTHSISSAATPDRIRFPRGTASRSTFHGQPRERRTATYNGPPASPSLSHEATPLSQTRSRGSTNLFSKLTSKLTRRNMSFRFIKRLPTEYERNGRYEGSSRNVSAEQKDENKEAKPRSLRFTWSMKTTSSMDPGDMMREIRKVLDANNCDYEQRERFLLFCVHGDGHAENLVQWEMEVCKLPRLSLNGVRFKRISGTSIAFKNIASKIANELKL
Description: as §2, §3, §4, §5, §6, §7, §8, §9

MELK = target: T18, MELK (Homo sapiens, UniProt Q14680); conditions: read-out: Residual Activity (%)
T18 construct: purchased ProQinase
Description: as §2, §3, §4, §5, §6, §7, §8, §9

CDK4/CycD1 = target: T19, CDK4/CycD1 (Homo sapiens, UniProt P11802); conditions: CDK4/CycD1, 1 µM; read-out: Residual Activity (%)
T19 construct: purchased ProQinase
Description: as §2, §3, §4, §5, §6, §7, §8, §9

MAP4K2 = target: T20, MAP4K2 (Homo sapiens, UniProt Q12851); conditions: MAP4K2, 1 µM; read-out: Residual Activity (%)
T20 construct: purchased ProQinase
Description: as §2, §3, §4, §5, §6, §7, §8, §9

CAMK2G = target: T21, CAMK2G (Homo sapiens, UniProt Q13555); conditions: read-out: Residual Activity (%)
T21 construct: purchased ProQinase
T21 sequence (Q13555 whole entry): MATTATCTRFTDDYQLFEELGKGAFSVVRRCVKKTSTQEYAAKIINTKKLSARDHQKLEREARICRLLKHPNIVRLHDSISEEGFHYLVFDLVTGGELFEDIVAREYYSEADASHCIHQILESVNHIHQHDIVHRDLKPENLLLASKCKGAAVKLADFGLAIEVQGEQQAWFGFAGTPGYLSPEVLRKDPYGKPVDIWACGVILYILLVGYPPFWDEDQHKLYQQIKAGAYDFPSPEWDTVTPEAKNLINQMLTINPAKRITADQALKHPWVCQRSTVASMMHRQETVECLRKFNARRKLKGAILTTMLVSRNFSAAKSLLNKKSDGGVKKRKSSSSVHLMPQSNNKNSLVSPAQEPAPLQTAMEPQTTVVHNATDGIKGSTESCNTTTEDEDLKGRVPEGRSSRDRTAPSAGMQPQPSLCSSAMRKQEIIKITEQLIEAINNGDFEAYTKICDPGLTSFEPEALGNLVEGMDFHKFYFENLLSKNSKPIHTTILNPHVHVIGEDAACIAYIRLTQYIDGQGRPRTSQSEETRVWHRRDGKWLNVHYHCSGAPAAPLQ
Description: as §2, §3, §4, §5, §6, §7, §8, §9

MKK7 = target: T22, MKK7 (Homo sapiens, UniProt O14733); conditions: MKK7, 1 µM; read-out: Residual Activity (%)
T22 construct: purchased ProQinase
T22 sequence (O14733 whole entry): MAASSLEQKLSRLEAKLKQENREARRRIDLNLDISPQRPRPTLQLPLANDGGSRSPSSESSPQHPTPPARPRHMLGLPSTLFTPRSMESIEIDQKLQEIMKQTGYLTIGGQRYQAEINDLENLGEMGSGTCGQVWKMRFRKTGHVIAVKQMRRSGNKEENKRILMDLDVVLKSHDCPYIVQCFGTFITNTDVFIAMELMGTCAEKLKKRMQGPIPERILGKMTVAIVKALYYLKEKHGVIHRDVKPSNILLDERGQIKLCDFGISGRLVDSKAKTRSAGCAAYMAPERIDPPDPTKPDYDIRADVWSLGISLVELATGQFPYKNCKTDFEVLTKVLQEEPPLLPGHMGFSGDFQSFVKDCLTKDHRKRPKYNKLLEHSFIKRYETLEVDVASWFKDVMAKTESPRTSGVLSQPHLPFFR
Description: as §2, §3, §4, §5, §6, §7, §8, §9

VEGF-R2 = target: T23, VEGF-R2 (Homo sapiens, UniProt P35968); conditions: VEGF-R2, 1 µM; read-out: Residual Activity (%)
T23 construct: purchased ProQinase
Description: as §2, §3, §4, §5, §6, §7, §8, §9

FER = target: T24, FER (Homo sapiens, UniProt P16591); conditions: read-out: Residual Activity (%)
T24 construct: purchased ProQinase
Description: as §2, §3, §4, §5, §6, §7, §8, §9

SNK = target: T25, SNK (Homo sapiens, UniProt Q9NYY3); conditions: read-out: Residual Activity (%)
T25 construct: purchased ProQinase
Description: as §2, §3, §4, §5, §6, §7, §8, §9

CAMK2B = target: T26, CAMK2B (Homo sapiens, UniProt Q13554); conditions: read-out: Residual Activity (%)
T26 construct: purchased ProQinase
Description: as §2, §3, §4, §5, §6, §7, §8, §9

COc1ccc(-c2cc(C(=O)Nc3cc(-c4c(-c5ccc(F)cc5)noc4C(C)C)ccn3)n(CC3NCC(O)C3O)c2)cc1 (centres unmarked) [29d]
remaining activity at 1 µM (ABL1): 95%
remaining activity at 1 µM (CDK4/CycD3): 98%
remaining activity at 1 µM (WEE1): 95%
remaining activity at 1 µM (MKK6 S207D/T211D**): 91%
remaining activity at 1 µM (ACV-RL1): 115%
remaining activity at 1 µM (CDK1/CycB1): 107%
remaining activity at 1 µM (MET): 89%
remaining activity at 1 µM (GSK3-alpha): 103%
remaining activity at 1 µM (ERK2): 104%
remaining activity at 1 µM (PKC-eta): 113%
remaining activity at 1 µM (PKC-theta): 101%
remaining activity at 1 µM (TNK1): 104%
remaining activity at 1 µM (MST4): 108%
remaining activity at 1 µM (MKNK1): 82%
remaining activity at 1 µM (PDGFR-alpha): 89%
remaining activity at 1 µM (ROCK1): 92%
remaining activity at 1 µM (MARK3): 96%
remaining activity at 1 µM (MELK): 107%
remaining activity at 1 µM (CDK4/CycD1): 108%
remaining activity at 1 µM (MAP4K2): 93%
remaining activity at 1 µM (CAMK2G): 119%
remaining activity at 1 µM (MKK7): 95%
remaining activity at 1 µM (VEGF-R2): 110%
remaining activity at 1 µM (FER): 98%
remaining activity at 1 µM (SNK): 108%
remaining activity at 1 µM (CAMK2B): 102%
